# Measured values published in patent US9920010B2, “CXCR7 receptor modulators” (IDORSIA PHARMACEUTICALS LTD, priority 2013, dated 2018).
# Biological target: T1, CXCR7 (Homo sapiens, UniProt P25106)
# T1 construct: host or cells: CHO-K1 (PathHunter CHO-K1 CXCR7 b-arrestin cell line, stably transfected)
# Assay: PathHunter CHO-K1 CXCR7 b-arrestin recruitment assay (CXCR7 agonistic activity)
# Format: cell-based
# Conditions: PathHunter CHO-K1 CXCR7 b-arrestin cell line
# Outline: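 Stable CHO-K1 line with C-terminally ProLink-tagged CXCR7 and β-arrestin 2–EA fusion; β-arrestin recruitment restores β-gal activity, read by chemiluminescence after 1 h RT detection. Cells seeded 24 h, starved in OPTIMEM 3–4 h, exposed to compounds 90 min at 37 °C in HBSS/HEPES/BSA. Geometric-mean EC50 from repeated measurements.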
# T1 sequence (P25106 whole entry): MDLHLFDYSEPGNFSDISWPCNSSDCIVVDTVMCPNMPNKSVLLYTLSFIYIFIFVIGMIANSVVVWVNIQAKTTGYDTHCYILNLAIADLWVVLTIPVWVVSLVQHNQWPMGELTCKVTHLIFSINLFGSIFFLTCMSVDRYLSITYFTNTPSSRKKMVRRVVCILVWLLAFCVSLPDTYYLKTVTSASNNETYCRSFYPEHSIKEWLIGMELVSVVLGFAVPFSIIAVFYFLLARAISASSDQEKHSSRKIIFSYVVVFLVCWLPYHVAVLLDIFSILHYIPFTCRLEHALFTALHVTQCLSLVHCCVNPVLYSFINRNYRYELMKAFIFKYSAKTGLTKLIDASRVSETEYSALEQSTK
# T1 sequence (P32121 whole entry partner): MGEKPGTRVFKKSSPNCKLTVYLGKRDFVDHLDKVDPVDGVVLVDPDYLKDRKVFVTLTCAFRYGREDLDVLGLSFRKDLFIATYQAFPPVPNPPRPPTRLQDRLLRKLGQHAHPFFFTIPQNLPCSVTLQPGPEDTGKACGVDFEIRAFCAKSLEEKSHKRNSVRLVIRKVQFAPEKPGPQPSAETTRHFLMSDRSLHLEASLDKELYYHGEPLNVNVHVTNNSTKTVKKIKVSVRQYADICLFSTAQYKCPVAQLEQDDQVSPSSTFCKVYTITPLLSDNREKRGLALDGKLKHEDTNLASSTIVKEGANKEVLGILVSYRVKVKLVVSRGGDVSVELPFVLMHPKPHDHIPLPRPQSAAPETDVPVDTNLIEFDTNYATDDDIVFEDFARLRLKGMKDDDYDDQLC
row,SMILES,EC50 [nM]
1,"CC(C)CN1CCc2cccc(NCC(=O)N(CCN(C)C)Cc3ccccc3C(F)(F)F)c2C1 [compound 557, N-(2-Dimethylamino-ethyl)-2-(2-isobutyl-1,2,3,4-tetrahydro-isoquinolin-8-ylamino)-N-(2-trifluoromethyl-benzyl)-acetamide]",5
2,"CCC(=O)N1CCc2cccc(NCC(=O)N(CCN(C)C)Cc3ccccc3C(F)(F)F)c2C1 [compound 559, N-(2-Dimethylamino-ethyl)-2-(2-propionyl-1,2,3,4-tetrahydro-isoquinolin-8-ylamino)-N-(2-trifluoromethyl-benzyl)-acetamide]",13
3,"CN(C)CCN(Cc1ccccc1C(F)(F)F)C(=O)CNc1cccc2c1CN(C(=O)C1CC1)CC2 [compound 560, 2-(2-Cyclopropanecarbonyl-1,2,3,4-tetrahydro-isoquinolin-8-ylamino)-N-(2-dimethylamino-ethyl)-N-(2-trifluoromethyl-benzyl)-acetamide]",5
4,"CN(C)CCN(Cc1ccccc1C(F)(F)F)C(=O)CNc1cccc2c1CN(C(=O)N1CCCC1)CC2 [compound 561, N-(2-Dimethylamino-ethyl)-2-[2-(pyrrolidine-1-carbonyl)-1,2,3,4-tetrahydro-isoquinolin-8-ylamino]-N-(2-trifluoromethyl-benzyl)-acetamide]",7
5,CN(C)CCN(Cc1ccccc1C(F)(F)F)C(=O)CNc1cccc2c1CN(C(N)=O)CC2 [compound 562],100
6,"CN(C)CCN(Cc1ccccc1C(F)(F)F)C(=O)CNc1cccc2c1CN(CC(C)(C)C)CC2 [compound 563, N-(2-Dimethylamino-ethyl)-2-[2-(2,2-dimethyl-propyl)-1,2,3,4-tetrahydro-isoquinolin-8-ylamino]-N-(2-trifluoromethyl-benzyl)-acetamide]",26
7,"CN(C)CCN(Cc1ccccc1C(F)(F)F)C(=O)CNc1cccc2c1CN(C)CC2 [compound 564, N-(2-Dimethylamino-ethyl)-2-(2-methyl-1,2,3,4-tetrahydro-isoquinolin-8-ylamino)-N-(2-trifluoromethyl-benzyl)-acetamide]",17
8,"O=C(CNc1cccc2c1CN(CC1CC1)CC2)N(CCN1CCCC1)Cc1ccccc1C(F)(F)F [compound 565, 2-(2-Cyclopropylmethyl-1,2,3,4-tetrahydro-isoquinolin-8-ylamino)-N-(2-pyrrolidin-1-yl-ethyl)-N-(2-trifluoromethyl-benzyl)-acetamide]",4
9,"CN(C)CCN(Cc1ncccc1C(F)(F)F)C(=O)CNc1cccc2c1CN(CC1CC1)CC2 [compound 566, 2-(2-Cyclopropylmethyl-1,2,3,4-tetrahydro-isoquinolin-8-ylamino)-N-(2-dimethylamino-ethyl)-N-(3-trifluoromethyl-pyridin-2-ylmethyl)-acetamide]",3
10,"CCN1CCc2cccc(OCC(=O)N(CCN(C)C)Cc3ccccc3C(F)(F)F)c2C1 [compound 567, N-(2-Dimethylamino-ethyl)-2-(2-ethyl-1,2,3,4-tetrahydro-isoquinolin-8-yloxy)-N-(2-trifluoromethyl-benzyl)-acetamide]",4
